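Cells were grown in 96-well plates and exposed to each compound for 48 hours at five concentrations; endpoints were interpolated linearly between bracketing concentrations, or set to the highest concentration if not reached. GI50 = concentration required for 50% inhibition of growth. The concentration for full growth arrest is given as TGI.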
Key:
Assay in all cases: NCI-60 cell line screen, 48 h
786-0 renal = test system: 786-0 renal
A498 renal = test system: A498 renal
A549 NSCLC = test system: A549 NSCLC
ACHN renal = test system: ACHN renal
BT-549 breast = test system: BT-549 breast
CAKI-1 renal = test system: CAKI-1 renal
CCRF-CEM leukemia = test system: CCRF-CEM leukemia
COLO 205 colon = test system: COLO 205 colon
DU-145 prostate = test system: DU-145 prostate
EKVX NSCLC = test system: EKVX NSCLC
HCC-2998 colon = test system: HCC-2998 colon
HCT-116 colon = test system: HCT-116 colon
HCT-15 colon = test system: HCT-15 colon
HL-60(TB) leukemia = test system: HL-60(TB) leukemia
HOP-62 NSCLC = test system: HOP-62 NSCLC
HOP-92 NSCLC = test system: HOP-92 NSCLC
HS 578T breast = test system: HS 578T breast
HT29 colon = test system: HT29 colon
IGROV1 ovarian = test system: IGROV1 ovarian
K-562 leukemia = test system: K-562 leukemia
KM12 colon = test system: KM12 colon
LOX IMVI melanoma = test system: LOX IMVI melanoma
M14 melanoma = test system: M14 melanoma
MALME-3M melanoma = test system: MALME-3M melanoma
MCF7 breast = test system: MCF7 breast
MDA-MB-231 breast = test system: MDA-MB-231 breast
MDA-MB-435 = test system: MDA-MB-435
MOLT-4 leukemia = test system: MOLT-4 leukemia
NCI-H226 lung = test system: NCI-H226 lung
NCI-H23 lung = test system: NCI-H23 lung
NCI-H460 lung = test system: NCI-H460 lung
NCI-H522 lung = test system: NCI-H522 lung
NCI/ADR-RES ovarian = test system: NCI/ADR-RES ovarian
OVCAR-3 ovarian = test system: OVCAR-3 ovarian
OVCAR-4 ovarian = test system: OVCAR-4 ovarian
OVCAR-5 ovarian = test system: OVCAR-5 ovarian
OVCAR-8 ovarian = test system: OVCAR-8 ovarian
PC-3 prostate = test system: PC-3 prostate
RPMI-8226 leukemia = test system: RPMI-8226 leukemia
RXF 393 renal = test system: RXF 393 renal
SF-268 CNS = test system: SF-268 CNS
SF-295 CNS = test system: SF-295 CNS
SF-539 CNS = test system: SF-539 CNS
SK-MEL-2 melanoma = test system: SK-MEL-2 melanoma
SK-MEL-28 melanoma = test system: SK-MEL-28 melanoma
SK-MEL-5 melanoma = test system: SK-MEL-5 melanoma
SK-OV-3 ovarian = test system: SK-OV-3 ovarian
SN12C renal = test system: SN12C renal
SNB-19 CNS = test system: SNB-19 CNS
SNB-75 CNS = test system: SNB-75 CNS
SR leukemia = test system: SR leukemia
SW-620 colon = test system: SW-620 colon
T-47D breast = test system: T-47D breast
TK-10 renal = test system: TK-10 renal
U251 CNS = test system: U251 CNS
UACC-257 melanoma = test system: UACC-257 melanoma
UACC-62 melanoma = test system: UACC-62 melanoma
UO-31 renal = test system: UO-31 renal

Molecule `O=C1/C(=C/c2cccc([N+](=O)[O-])c2)COc2ccc(O)c(O)c21` has a GI50 (786-0 renal) of 1350 nM, a TGI (786-0 renal) of 2850 nM and a GI50 (A498 renal) of 1420 nM. The TGI (A498 renal) was 3.26 µM, the GI50 (A549 NSCLC) was 2060 nM and the TGI (A549 NSCLC) was 6.37 µM. For the same molecule, the GI50 (ACHN renal) was 1360 nM, the TGI (ACHN renal) was 2680 nM and the GI50 (BT-549 breast) was 2420 nM. It also gave a TGI (BT-549 breast) of 4.84 µM, a GI50 (CAKI-1 renal) of 1270 nM and a TGI (CAKI-1 renal) of 2590 nM. For the same molecule, the GI50 (CCRF-CEM leukemia) was 335 nM, the TGI (CCRF-CEM leukemia) was 2430 nM and the GI50 (COLO 205 colon) was 1790 nM. The TGI (COLO 205 colon) was 3.74 µM, the GI50 (DU-145 prostate) was 1900 nM and the TGI (DU-145 prostate) was 4.39 µM. The GI50 (EKVX NSCLC) was 1900 nM, the TGI (EKVX NSCLC) was 4.1 µM and the GI50 (HCC-2998 colon) was 1660 nM. It also gave a TGI (HCC-2998 colon) of 3.22 µM, a GI50 (HCT-116 colon) of 1140 nM and a TGI (HCT-116 colon) of 2700 nM. The GI50 (HCT-15 colon) was 569 nM, the TGI (HCT-15 colon) was 2760 nM and the GI50 (HL-60(TB) leukemia) was 2290 nM. For the same molecule, the TGI (HL-60(TB) leukemia) was 7.14 µM, the GI50 (HOP-62 NSCLC) was 1930 nM and the TGI (HOP-62 NSCLC) was 4.62 µM. The GI50 (HOP-92 NSCLC) was 2240 nM, the TGI (HOP-92 NSCLC) was 8.22 µM and the GI50 (HS 578T breast) was 2040 nM. It also gave a TGI (HS 578T breast) of 7.47 µM, a GI50 (HT29 colon) of 2890 nM and a TGI (HT29 colon) of 19.1 µM. For the same molecule, the GI50 (IGROV1 ovarian) was 1020 nM, the TGI (IGROV1 ovarian) was 2970 nM and the GI50 (K-562 leukemia) was 506 nM. The TGI (K-562 leukemia) was 7.22 µM, the GI50 (KM12 colon) was 1680 nM and the TGI (KM12 colon) was 3.4 µM. The GI50 (LOX IMVI melanoma) was 499 nM, the TGI (LOX IMVI melanoma) was 1860 nM and the GI50 (M14 melanoma) was 1810 nM. For the same molecule, the TGI (M14 melanoma) was 4.27 µM, the GI50 (MALME-3M melanoma) was 1490 nM and the TGI (MALME-3M melanoma) was 3.04 µM. It also gave a GI50 (MCF7 breast) of 665 nM, a TGI (MCF7 breast) of 2960 nM and a GI50 (MDA-MB-231 breast) of 1470 nM. For the same molecule, the TGI (MDA-MB-231 breast) was 2980 nM, the GI50 (MDA-MB-435) was 1690 nM and the TGI (MDA-MB-435) was 3.77 µM. For the same molecule, the GI50 (MOLT-4 leukemia) was 2120 nM, the TGI (MOLT-4 leukemia) was 12.1 µM and the GI50 (NCI-H226 lung) was 2350 nM. For the same molecule, the TGI (NCI-H226 lung) was 8.33 µM, the GI50 (NCI-H23 lung) was 1750 nM and the TGI (NCI-H23 lung) was 3.95 µM. The GI50 (NCI-H460 lung) was 2080 nM, the TGI (NCI-H460 lung) was 4.97 µM and the GI50 (NCI-H522 lung) was 281 nM. It also gave a TGI (NCI-H522 lung) of 1360 nM, a GI50 (NCI/ADR-RES ovarian) of 2430 nM and a TGI (NCI/ADR-RES ovarian) of 18 µM. It also gave a GI50 (OVCAR-3 ovarian) of 1200 nM, a TGI (OVCAR-3 ovarian) of 2710 nM and a GI50 (OVCAR-4 ovarian) of 1460 nM. It also gave a TGI (OVCAR-4 ovarian) of 2800 nM, a GI50 (OVCAR-5 ovarian) of 1800 nM and a TGI (OVCAR-5 ovarian) of 3.44 µM. The GI50 (OVCAR-8 ovarian) was 2350 nM, the TGI (OVCAR-8 ovarian) was 13.3 µM and the GI50 (PC-3 prostate) was 1160 nM. For the same molecule, the TGI (PC-3 prostate) was 4.14 µM, the GI50 (RPMI-8226 leukemia) was 301 nM and the TGI (RPMI-8226 leukemia) was 930 nM. It also gave a GI50 (RXF 393 renal) of 1280 nM, a TGI (RXF 393 renal) of 2690 nM and a GI50 (SF-268 CNS) of 1790 nM. For the same molecule, the TGI (SF-268 CNS) was 4.3 µM, the GI50 (SF-295 CNS) was 3.27 µM and the TGI (SF-295 CNS) was 11.2 µM. The GI50 (SF-539 CNS) was 1610 nM, the TGI (SF-539 CNS) was 3.57 µM and the GI50 (SK-MEL-2 melanoma) was 2000 nM. It also gave a TGI (SK-MEL-2 melanoma) of 4.35 µM, a GI50 (SK-MEL-28 melanoma) of 1560 nM and a TGI (SK-MEL-28 melanoma) of 2980 nM. The GI50 (SK-MEL-5 melanoma) was 1550 nM, the TGI (SK-MEL-5 melanoma) was 2950 nM and the GI50 (SK-OV-3 ovarian) was 3.41 µM. It also gave a TGI (SK-OV-3 ovarian) of 12.6 µM, a GI50 (SN12C renal) of 1160 nM and a TGI (SN12C renal) of 2510 nM. It also gave a GI50 (SNB-19 CNS) of 1550 nM, a TGI (SNB-19 CNS) of 2980 nM and a GI50 (SNB-75 CNS) of 1280 nM. For the same molecule, the TGI (SNB-75 CNS) was 5.72 µM, the GI50 (SR leukemia) was 364 nM and the TGI (SR leukemia) was 7.94 µM. It also gave a GI50 (SW-620 colon) of 1140 nM, a TGI (SW-620 colon) of 3.08 µM and a GI50 (T-47D breast) of 1170 nM. The TGI (T-47D breast) was 3.92 µM, the GI50 (TK-10 renal) was 1700 nM and the TGI (TK-10 renal) was 3.21 µM. It also gave a GI50 (U251 CNS) of 1170 nM, a TGI (U251 CNS) of 2640 nM and a GI50 (UACC-257 melanoma) of 1860 nM. The TGI (UACC-257 melanoma) was 4.81 µM, the GI50 (UACC-62 melanoma) was 1570 nM and the TGI (UACC-62 melanoma) was 2980 nM. The GI50 (UO-31 renal) was 1070 nM and the TGI (UO-31 renal) was 2290 nM.
